Legend:
[1] = system: Mus musculus; assay: Antinociceptive activity in sc dosed mouse assessed as effect on acetic acid-induced writhing; assay type: functional
[2] = Displacement of [3H]NTI from delta opioid receptor in guinea pig forebrain; set-up: species or system Cavia porcellus
[3] = molecular target: Opioid receptor (mu and kappa) (Cavia porcellus) (UniProt P41144+P97266); assay: Selectivity ratio of Ki for mu opioid receptor in guinea pig forebrain to Ki for kappa opioid receptor in guinea pig cerebellum; assay type: tissue-based
[4] = organism: Cavia porcellus; assay: Selectivity ratio of Ki for delta opioid receptor in guinea pig forebrain to Ki for kappa opioid receptor in guinea pig cerebellum; assay type: tissue-based
[5] = molecular target: Mu-type opioid receptor (Cavia porcellus, UniProt P97266); assay: Displacement of [3H]DAMGO from mu opioid receptor in guinea pig forebrain
[6] = molecular target: Kappa-type opioid receptor (Cavia porcellus, UniProt P41144); assay: Displacement of [3H]U69593 from kappa opioid receptor in guinea pig cerebellum; assay type: tissue-based
Kappa-type opioid receptor, sequence (P41144 whole entry): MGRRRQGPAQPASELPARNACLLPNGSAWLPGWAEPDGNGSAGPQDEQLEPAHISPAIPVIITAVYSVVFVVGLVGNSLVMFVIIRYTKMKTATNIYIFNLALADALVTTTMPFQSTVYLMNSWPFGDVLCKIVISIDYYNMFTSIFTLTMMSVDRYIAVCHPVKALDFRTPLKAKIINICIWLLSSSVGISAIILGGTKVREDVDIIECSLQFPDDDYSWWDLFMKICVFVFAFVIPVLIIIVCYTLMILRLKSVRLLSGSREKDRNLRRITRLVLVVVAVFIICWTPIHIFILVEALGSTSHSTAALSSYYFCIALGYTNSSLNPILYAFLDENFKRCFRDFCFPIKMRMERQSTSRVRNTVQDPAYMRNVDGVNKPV

Opioid receptor (mu and kappa) (Cavia porcellus), sequence (P41144 whole entry, looked up): as the sequence (P41144 whole entry) above
Opioid receptor (mu and kappa) (Cavia porcellus), sequence (P97266 whole entry, looked up): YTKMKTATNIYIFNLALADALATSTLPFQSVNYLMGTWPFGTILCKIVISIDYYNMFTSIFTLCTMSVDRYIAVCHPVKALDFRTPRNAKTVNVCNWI
Mu-type opioid receptor, sequence (P97266 whole entry): as the sequence (P97266 whole entry, looked up) above

| SMILES | Activity [1] | ED50 [1] [mg/kg] | Ki [2] [nM] | Ratio Ki [3] | Ratio Ki [4] | Ki [5] [nM] | Ki [6] [nM] | IC50 [2] [nM] |
| --- | --- | --- | --- | --- | --- | --- | --- | --- |
| CCCCCC(=O)/C=C/c1cc2c(n1C)[C@@H]1Oc3c(O)ccc4c3[C@@]13CCN(CC1CC1)[C@H](C4)[C@]3(O)C2 | Dose-dependent effect | 5.87 | 3.55 | 12 | 2.9 | 15 | 1.24 | – |
| Cn1c(/C=C/C(=O)c2ccccc2)cc2c1[C@@H]1Oc3c(O)ccc4c3[C@@]13CCN(CC1CC1)[C@H](C4)[C@]3(O)C2 | – | – | 3.74 | 8.1 | 8 | 3.76 | 0.467 | – |
| Cn1c(CCC(=O)CCc2ccccc2)cc2c1[C@@H]1Oc3c(O)ccc4c3[C@@]13CCN(CC1CC1)[C@H](C4)[C@]3(O)C2 | – | – | 1.59 | 1.6 | 4.6 | 0.548 | 0.342 | – |
| Cn1c(/C=C/C(=O)CCc2ccccc2)cc2c1[C@@H]1Oc3c(O)ccc4c3[C@@]13CCN(CC1CC1)[C@H](C4)[C@]3(O)C2 | – | – | 1.73 | 7.4 | 1.9 | 6.89 | 0.935 | – |
| Cn1c(/C=C/C(=O)Cc2ccccc2)cc2c1[C@@H]1Oc3c(O)ccc4c3[C@@]13CCN(CC1CC1)[C@H](C4)[C@]3(O)C2 | – | – | 2.08 | 5.8 | 1.8 | 6.58 | 1.13 | – |
| Cn1c(/C=C/c2ccccc2)cc2c1[C@@H]1Oc3c(O)ccc4c3[C@@]13CCN(CC1CC1)[C@H](C4)[C@]3(O)C2 | – | – | – | 0.5 | – | 1.76 | 3.79 | > 1000 |
| CCC/C=C/c1cc2c(n1C)[C@@H]1Oc3c(O)ccc4c3[C@@]13CCN(CC1CC1)[C@H](C4)[C@]3(O)C2 | – | – | 6.58 | 0.8 | 0.9 | 5.85 | 7.38 | – |
| Cc1occc1C(=O)/C=C/c1cc2c(n1C)[C@@H]1Oc3c(O)ccc4c3[C@@]13CCN(CC1CC1)[C@H](C4)[C@]3(O)C2 | – | – | 1.47 | 5.4 | 1.3 | 6.2 | 1.15 | – |

From ChEMBL document CHEMBL1221313, “Synthesis of pyrrolomorphinan derivatives as kappa opioid agonists” (Bioorg Med Chem Lett, 2010)
